Assay results reported in patent US20250134899A1, “COMBINATION THERAPIES OF WDR5 INHIBITORS AND PD-1 INHIBITORS” (HUYABIO International, LLC, priority 2023, published 2025).

System: GL261-Luc cells (syngeneic orthotopic gliomas)
Assay: GL261-luc intracranial orthotopic syngeneic brain (glioma) model, survival
Type: in vivo, C57BL/6J mice
Protocol: Female C57BL/6J mice (Beijing VR Laboratory Animal Co., LTD; 6 to 8 weeks old, approximately 18-22 g) were used for intracranial […] orthotopic glioma experiment. To establish syngeneic orthotopic gliomas, 200,000 GL261-Luc cells were stereotactically injected in a 3-μL volume of PBS mixed with 20% Matrigel into the left striatum over 1 minute, 3 mm deep from the cortical surface. Tumor burden was monitored by bioluminescence signal with IVIS imaging by injection 1.5 mg of luciferin per animal prior to imaging. On day 7 after implantation the mice were randomly allocated into treatment arms based on tumor radiance, so that the average tumor radiance in each group was approximately 8.50E+06 photon/sec (Day 0). Animals were treated for 28 days with HBI-2375 (80 mg/kg QD PO), Anti-PD-1 (RMP1-14) antibody (10 mg/kg BIW IP) and/or whole body radiation therapy (2 Gy/day×5 days) in monotherapy, doublet or triplet therapy and as described in the protocol.
The tumor take rate was 100%. Each arm had 10 mice in survival experiments. Study was terminated on Day 85.

SMILES: Cc1c(F)c(N)cc(C(=O)Nc2cc(-n3cc(C(=O)N4CCN(C)CC4)nn3)c(F)cc2N2C[C@@H](C)N(C)[C@@H](C)C2)c1Cl [HBI-2375, 5-amino-2-chloro-4-fluoro-N-(4-fluoro-5-(4-(4-methylpiperazine-1-carbonyl)-1H-1,2,3-triazol-1-yl)-2-((3S,5R)-3,4,5-trimethylpiperazin-1-yl)phenyl)-3-methylbenzamide]
- % Survival at Day 85 (Day 85, same dosing): 10%
- Median Survival (GL261-Luc intracranial, 10 mice per arm, treated 28 days, HBI-2375 80 mg/kg QD PO, anti-PD-1 10 mg/kg BIW IP, radiation 2 Gy/day x 5 days, study terminated Day 85): 17.5 days
- survival (in words) (in combination with Anti-PD-1 and Radiation, FIG. 1 legend): increases survival
- Survival at Day 85 (surviving mice / mice per arm at Day 85, same dosing): 1/10
